Target: T1, ZAK (Homo sapiens, UniProt Q9NYL2)
T1 construct: purchased Thermo Fisher Scientific (Life Technologies) SelectScreen
Test: SelectScreen LanthaScreen
Assay type: binding
Conditions: read-out: % displacement
Procedure, shortened: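 SelectScreen broad panel; activity (Z'LYTE, Adapta) plus binding formats. ATP: Km app for CSF1R Z'LYTE; 10 for CAMK1 Adapta. Readout = % per kinase.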

T1 sequence (Q9NYL2 whole entry): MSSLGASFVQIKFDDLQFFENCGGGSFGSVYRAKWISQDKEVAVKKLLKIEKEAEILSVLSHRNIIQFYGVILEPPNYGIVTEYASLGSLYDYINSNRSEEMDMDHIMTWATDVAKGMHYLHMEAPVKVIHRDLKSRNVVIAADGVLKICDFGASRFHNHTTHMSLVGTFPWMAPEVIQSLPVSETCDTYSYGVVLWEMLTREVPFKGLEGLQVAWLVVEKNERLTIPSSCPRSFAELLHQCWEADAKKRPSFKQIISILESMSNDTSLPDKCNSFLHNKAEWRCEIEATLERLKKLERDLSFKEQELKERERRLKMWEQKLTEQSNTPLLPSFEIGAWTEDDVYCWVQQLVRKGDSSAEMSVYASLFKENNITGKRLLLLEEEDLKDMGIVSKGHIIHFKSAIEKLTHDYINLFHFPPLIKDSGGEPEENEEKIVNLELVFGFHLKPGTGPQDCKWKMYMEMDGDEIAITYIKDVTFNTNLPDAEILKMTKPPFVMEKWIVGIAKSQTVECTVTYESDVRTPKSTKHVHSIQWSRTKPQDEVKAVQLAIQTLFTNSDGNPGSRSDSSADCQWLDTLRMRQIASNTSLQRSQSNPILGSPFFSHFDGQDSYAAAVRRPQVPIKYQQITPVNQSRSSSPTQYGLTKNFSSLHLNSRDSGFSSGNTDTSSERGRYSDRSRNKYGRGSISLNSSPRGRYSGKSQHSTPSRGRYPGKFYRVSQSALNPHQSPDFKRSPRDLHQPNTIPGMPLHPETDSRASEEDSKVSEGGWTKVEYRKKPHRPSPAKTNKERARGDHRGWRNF

CN(C(=O)CN1CCOCC1)c1ccc2sc3c(-c4cccc5c(=O)cc(N6CC7CCC(C6)O7)oc45)cccc3c2c1 [NU5455]
inhibition at 1 µM: -0.7%
